Our source for the IC50 values is patent US12336981B2, “Compounds and compositions for the inhibition of NAMPT” (Valo Health, Inc., priority 2010, dated 2025).

The term IC50 denotes the concentration at which inhibition is half-maximal.

Test [1] has as its target T1, NAMPT (Homo sapiens, UniProt P43490).
T1 construct: His tag; host or cells: E. coli
The experiment in a line: Biochemical inhibition assay: NAMPT enzymatic reaction, NMN quantified by mass spectrometry. The note with it: NAMPT enzymatic reaction; read-out: Biochem IC50. An outline of the steps:
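Inhibition of E. coli-expressed His-tagged human NAMPT, measured as NMN formation by mass spectrometry after a 30 min room-temperature reaction containing 1 μM NAM, 100 μM PRPP and 2.5 mM ATP.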

Test [2] relates to A2780 cells. The experiment in a line: In-vitro cell proliferation assay (SRB), A2780 cells. The test is classed as cell-based. The note with it: Homo sapiens, A2780, 72 h, A2780 cells, 72 hours, read-out: A2780 IC50. An outline of the steps: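 Read-out is SRB absorbance at 570 nm on TCA-fixed cells after 72 hours of compound treatment at 37° C. in 5% CO2. Background from a media-only plate is subtracted, and % inhibition is interpolated between two tested concentrations.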

Molecules are shown by their SMILES. Read-outs that look alike come from different tables or passages of the source.

T1 sequence (P43490 whole entry): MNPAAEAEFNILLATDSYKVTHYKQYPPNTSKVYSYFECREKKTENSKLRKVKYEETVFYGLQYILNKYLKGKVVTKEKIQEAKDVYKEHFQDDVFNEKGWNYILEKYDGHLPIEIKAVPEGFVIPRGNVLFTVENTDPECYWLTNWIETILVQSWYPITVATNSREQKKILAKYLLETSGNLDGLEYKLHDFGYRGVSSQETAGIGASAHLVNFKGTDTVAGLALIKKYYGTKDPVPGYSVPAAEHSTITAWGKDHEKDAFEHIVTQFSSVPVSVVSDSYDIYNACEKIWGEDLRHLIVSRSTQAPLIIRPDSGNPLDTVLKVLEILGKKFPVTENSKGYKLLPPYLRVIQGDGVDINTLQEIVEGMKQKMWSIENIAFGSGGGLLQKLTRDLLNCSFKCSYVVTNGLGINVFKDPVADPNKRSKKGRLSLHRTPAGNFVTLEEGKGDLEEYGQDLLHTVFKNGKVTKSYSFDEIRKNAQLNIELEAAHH

As for `O=C(NCc1ccc(S(=O)(=O)c2ccc(Cl)c(Cl)c2)cc1)c1cnc2[nH]ncc2c1` [N-({4-[(3,4-dichlorobenzene)sulfonyl]phenyl}methyl)-1H-pyrazolo[3,4-b]pyridine-5-carboxamide], the 50% inhibitory concentration (IC50) in test [1] was 6.7 nM; in test [2] (SRB) it was 5.5 nM.
With `O=C(NCc1ccc(S(=O)(=O)c2ccc(F)c(F)c2)cc1)c1cc2cnccc2[nH]1` [N-({4-[(3,4-difluorobenzene)sulfonyl]phenyl}methyl)-1H-pyrrolo[3,2-c]pyridine-2-carboxamide], the IC50 in test [1] was 13 nM; in test [2] (SRB assay), 14 nM.
For `O=C(NCc1ccc(S(=O)(=O)c2ccc(F)c(F)c2)cc1)c1cc2ccncc2s1` [N-({4-[(3,4-difluorobenzene)sulfonyl]phenyl}methyl)thieno[2,3-c]pyridine-2-carboxamide], in that order: 9 nM and 8.1 nM.
For `COc1ccc(S(=O)(=O)c2ccc(CNC(=O)c3cc4cnccc4[nH]3)cc2)cc1OC` [N-({4-[(3,4-dimethoxybenzene)sulfonyl]phenyl}methyl)-1H-pyrrolo[3,2-c]pyridine-2-carboxamide], in that order: 14 nM and 3 nM.
Take `COc1ccc(S(=O)(=O)c2ccc(CNC(=O)c3ccc4nccn4c3)cc2)cc1OC` [N-({4-[(3,4-dimethoxybenzene)sulfonyl]phenyl}methyl)imidazo[1,2-a]pyridine-6-carboxamide]: the IC50 was found to be 12 nM in test [1] and 2.51 nM in test [2] (SRB).
Turning to `COc1ccc(S(=O)(=O)c2ccc(CNC(=O)c3cc4ccncc4s3)cc2)cc1OC` [N-({4-[(3,4-dimethoxybenzene)sulfonyl]phenyl}methyl)thieno[2,3-c]pyridine-2-carboxamide], the results for the IC50 in test [1] and in test [2] (SRB assay) were 3 nM and 0.9 nM, respectively.
For the molecule `Cc1ccc(S(=O)(=O)c2ccc(CNC(=O)c3ccc4nccn4c3)cc2)cc1C` [N-({4-[(3,4-dimethylbenzene)sulfonyl]phenyl}methyl)imidazo[1,2-a]pyridine-6-carboxamide], the IC50 came out at 11.1 nM in test [1] and 2.97 nM in test [2] (SRB).
`Cc1ccc(S(=O)(=O)c2ccc(CNC(=O)c3cc4ccncc4s3)cc2)cc1C` [N-({4-[(3,4-dimethylbenzene)sulfonyl]phenyl}methyl)thieno[2,3-c]pyridine-2-carboxamide]: the IC50 was found to be 6 nM in test [1] and 2.3 nM in test [2] (SRB assay).
Consider `O=C(NCc1ccc(S(=O)(=O)c2cc(Cl)cc(Cl)c2)cc1)c1ccc2nccn2c1` [N-({4-[(3,5-dichlorobenzene)sulfonyl]phenyl}methyl)imidazo[1,2-a]pyridine-6-carboxamide], for which the IC50 in test [1] turned out to be 5.49 nM; in test [2] (SRB) it was 1.28 nM.
On to `O=C(NCc1ccc(S(=O)(=O)c2cc(Cl)cc(Cl)c2)cc1)c1cc2ccncc2s1` [N-({4-[(3,5-dichlorobenzene)sulfonyl]phenyl}methyl)thieno[2,3-c]pyridine-2-carboxamide], for which the IC50 in test [1] amounted to 6 nM; in test [2] (SRB assay), 0.7 nM.
For `COc1cc(OC)cc(S(=O)(=O)c2ccc(CNC(=O)c3cnc4nccn4c3)cc2)c1` [N-({4-[(3,5-dimethoxybenzene)sulfonyl]phenyl}methyl)imidazo[1,2-a]pyrimidine-6-carboxamide], the IC50 in test [1] stood at 2.4 nM; in test [2] (SRB), 1.6 nM.
As to `Cc1cc(C)cc(S(=O)(=O)c2ccc(CNC(=O)c3cc4cnccc4[nH]3)cc2)c1` [N-({4-[(3,5-dimethylbenzene)sulfonyl]phenyl}methyl)-1H-pyrrolo[3,2-c]pyridine-2-carboxamide], the concentration for half-maximal inhibition (IC50) turned out to be 9 nM in test [1] and 2 nM in test [2] (SRB assay).
In the case of `Cc1cc(C)cc(S(=O)(=O)c2ccc(CNC(=O)c3ccc4nccn4c3)cc2)c1` [N-({4-[(3,5-dimethylbenzene)sulfonyl]phenyl}methyl)imidazo[1,2-a]pyridine-6-carboxamide], the IC50 was found to be 6.76 nM in test [1] and 3.17 nM in test [2] (SRB).
For `Cc1cc(C)cc(S(=O)(=O)c2ccc(CNC(=O)c3cc4ccncc4s3)cc2)c1` [N-({4-[(3,5-dimethylbenzene)sulfonyl]phenyl}methyl)thieno[2,3-c]pyridine-2-carboxamide], the IC50 stood at 5 nM in test [1] and 1.8 nM in test [2] (SRB assay).
For `CC(=O)c1cccc(S(=O)(=O)c2ccc(CNC(=O)c3cc4cnccc4[nH]3)cc2)c1` [N-({4-[(3-acetylbenzene)sulfonyl]phenyl}methyl)-1H-pyrrolo[3,2-c]pyridine-2-carboxamide], in that order: 12 nM and 6 nM.
In the case of `CC(=O)c1cccc(S(=O)(=O)c2ccc(CNC(=O)c3cc4ccncc4o3)cc2)c1` [N-({4-[(3-acetylbenzene)sulfonyl]phenyl}methyl)furo[2,3-c]pyridine-2-carboxamide], the IC50 was determined as 17.6 nM in test [1] and 8 nM in test [2] (SRB).
For `CC(=O)c1cccc(S(=O)(=O)c2ccc(CNC(=O)c3ccc4nccn4c3)cc2)c1` [N-({4-[(3-acetylbenzene)sulfonyl]phenyl}methyl)imidazo[1,2-a]pyridine-6-carboxamide], in that order: 12.5 nM and 6.37 nM.
For the molecule `CC(=O)c1cccc(S(=O)(=O)c2ccc(CNC(=O)c3cc4ccncc4s3)cc2)c1` [N-({4-[(3-acetylbenzene)sulfonyl]phenyl}methyl)thieno[2,3-c]pyridine-2-carboxamide], the IC50 in test [1] was 4 nM; in test [2] (SRB assay), 2.6 nM.
Turning to `CCCCOc1cccc(S(=O)(=O)c2ccc(CNC(=O)c3cnc4[nH]ncc4c3)cc2)c1` [N-({4-[(3-butoxybenzene)sulfonyl]phenyl}methyl)-1H-pyrazolo[3,4-b]pyridine-5-carboxamide], the IC50 in test [1] amounted to 38.4 nM; in test [2] (SRB), 67.5 nM.
As to `CCCCOc1cccc(S(=O)(=O)c2ccc(CNC(=O)c3cc4cnccc4[nH]3)cc2)c1` [N-({4-[(3-butoxybenzene)sulfonyl]phenyl}methyl)-1H-pyrrolo[3,2-c]pyridine-2-carboxamide], the values for the 50% inhibitory concentration (IC50) in test [1] and in test [2] (SRB) were 11.5 nM and 21.6 nM, respectively.
`CCCCOc1cccc(S(=O)(=O)c2ccc(CNC(=O)c3cc4ccncc4o3)cc2)c1` [N-({4-[(3-butoxybenzene)sulfonyl]phenyl}methyl)furo[2,3-c]pyridine-2-carboxamide]: the IC50 in test [1] is 12.3 nM; in test [2] (SRB), 69.5 nM.
For `Cc1c(Cl)cccc1S(=O)(=O)c1ccc(CNC(=O)c2cnc3[nH]ncc3c2)cc1` [N-({4-[(3-chloro-2-methylbenzene)sulfonyl]phenyl}methyl)-1H-pyrazolo[3,4-b]pyridine-5-carboxamide], in that order: 36.9 nM and 16.1 nM.
As for `COc1ccc(S(=O)(=O)c2ccc(CNC(=O)c3cc4ccncc4o3)cc2)cc1Cl` [N-({4-[(3-chloro-4-methoxybenzene)sulfonyl]phenyl}methyl)furo[2,3-c]pyridine-2-carboxamide], the IC50 was 7.3 nM in test [1] and 1.8 nM in test [2] (SRB).
Regarding `COc1ccc(S(=O)(=O)c2ccc(CNC(=O)c3cc4ccncc4s3)cc2)cc1Cl` [N-({4-[(3-chloro-4-methoxybenzene)sulfonyl]phenyl}methyl)thieno[2,3-c]pyridine-2-carboxamide], the IC50 in test [1] was 5 nM; in test [2] (SRB), 1.6 nM.
As for `CCCOc1ccc(S(=O)(=O)c2ccc(CNC(=O)c3cnc4[nH]ncc4c3)cc2)cc1Cl` [N-({4-[(3-chloro-4-propoxybenzene)sulfonyl]phenyl}methyl)-1H-pyrazolo[3,4-b]pyridine-5-carboxamide], the concentration for half-maximal inhibition (IC50) is 7.9 nM in test [1] and 9.58 nM in test [2] (SRB).
